The structures appear in SMILES notation.

The target of this experiment is PIK3CA (human) (UniProt P42336). Nature of the experiment: Inhibition of PIK3CA Kinase Activity.
PIK3CA (human), sequence (P42336 whole entry, looked up): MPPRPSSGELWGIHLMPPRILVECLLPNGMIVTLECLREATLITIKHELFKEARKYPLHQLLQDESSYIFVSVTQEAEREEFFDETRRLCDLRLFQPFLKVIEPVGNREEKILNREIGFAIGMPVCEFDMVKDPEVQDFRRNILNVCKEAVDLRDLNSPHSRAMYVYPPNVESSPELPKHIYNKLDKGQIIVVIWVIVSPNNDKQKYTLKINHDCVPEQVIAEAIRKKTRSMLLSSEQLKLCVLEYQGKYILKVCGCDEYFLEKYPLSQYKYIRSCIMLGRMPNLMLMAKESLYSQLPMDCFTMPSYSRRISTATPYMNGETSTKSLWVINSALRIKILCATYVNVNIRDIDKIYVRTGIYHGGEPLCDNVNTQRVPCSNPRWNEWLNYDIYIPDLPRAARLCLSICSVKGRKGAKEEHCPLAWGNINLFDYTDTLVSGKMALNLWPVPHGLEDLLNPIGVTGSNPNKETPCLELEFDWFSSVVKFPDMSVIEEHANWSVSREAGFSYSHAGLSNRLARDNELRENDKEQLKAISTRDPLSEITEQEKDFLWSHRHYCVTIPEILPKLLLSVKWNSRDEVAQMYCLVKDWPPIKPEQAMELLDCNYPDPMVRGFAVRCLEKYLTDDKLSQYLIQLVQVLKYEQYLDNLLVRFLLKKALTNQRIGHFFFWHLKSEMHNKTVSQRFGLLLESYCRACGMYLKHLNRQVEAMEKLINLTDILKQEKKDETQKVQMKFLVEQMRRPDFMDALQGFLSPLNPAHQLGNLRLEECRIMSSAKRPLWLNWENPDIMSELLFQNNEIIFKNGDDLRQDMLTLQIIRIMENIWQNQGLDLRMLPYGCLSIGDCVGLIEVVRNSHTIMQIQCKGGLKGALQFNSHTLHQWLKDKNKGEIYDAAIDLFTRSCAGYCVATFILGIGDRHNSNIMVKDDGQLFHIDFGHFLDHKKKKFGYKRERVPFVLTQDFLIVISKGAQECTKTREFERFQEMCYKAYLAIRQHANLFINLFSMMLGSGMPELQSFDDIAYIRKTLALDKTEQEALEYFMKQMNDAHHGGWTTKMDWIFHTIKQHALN

Turning to `CCN(CC)CCN(C)Cc1cn(-c2nc(-c3cccc4[nH]ccc34)nc(N3CCOCC3)n2)cn1`, the IC50 is < 1 µM.

`Cc1nccn1-c1nc(-c2cccc(O)c2)nc(N2CCOCC2)n1`: the IC50 was < 1 µM.

Consider `Cc1nc(CN2CCCC2)cn1-c1nc(-c2cccc3[nH]ccc23)nc(N2CCOCC2)n1`, for which the IC50 is < 1 µM.

Regarding `FC(F)(F)c1nc2ccccc2n1-c1nc(-c2cccc3[nH]ccc23)nc(N2CCOCC2)n1`, the IC50 was < 1 µM.

As to `CCc1nc(C)cn1-c1nc(-c2cccc3[nH]ccc23)nc(N2CCOCC2)n1`, the IC50 was < 1 µM.

Consider `Cc1ccn(-c2nc(-c3ccc(N)nc3)nc(N3CCOCC3)n2)n1`, for which the IC50 is < 1 µM.

As for `Cc1nc2ccccc2n1-c1nc(-c2ccc(N)nc2)nc(N2CCOCC2)n1`, the IC50 was < 1 µM.

For the compound `Cc1cc(C(F)(F)F)n(-c2nc(-c3ccc(N)nc3)nc(N3CCOCC3)n2)n1`, the IC50 is < 1 µM.

Turning to `Cc1nc2ccccc2n1-c1nc(-c2cccc(CO)c2)nc(N2CCOCC2)n1`, the IC50 is < 1 µM.

On to `N#CCCc1nccn1-c1nc(-c2cnc(N)nc2)nc(N2CCOCC2)n1`, for which the IC50 is < 1 µM.

Regarding `C[C@H]1COCCN1c1nc(-c2cnc(N)nc2)nc(-n2c(C(F)F)nc3ccccc32)n1`, the IC50 was < 1 µM.

On to `OCc1cn(-c2nc(-c3cccc4[nH]ccc34)nc(N3CCOCC3)n2)cn1`, for which the IC50 is < 1 µM.

With `COCCNCc1cn(-c2nc(-c3cccc4[nH]ccc34)nc(N3CCOCC3)n2)c(C)n1`, the IC50 was < 1 µM.

Take `CCCc1nc2ccccc2n1-c1nc(-c2cnc(N)nc2)nc(N2CCOCC2)n1`: the IC50 is < 1 µM.

For `CCCCN(C)Cc1cn(-c2nc(-c3cccc4[nH]ccc34)nc(N3CCOCC3)n2)c(C)n1`, the IC50 was < 1 µM.

As to `c1ccc(Cc2nccn2-c2nc(-c3cccc4[nH]ccc34)nc(N3CCOCC3)n2)cc1`, the IC50 is < 1 µM.

For `CCCCc1nccn1-c1nc(-c2cnc(N)nc2)nc(N2CCOCC2)n1`, the concentration for half-maximal inhibition (IC50) is < 1 µM.

In the case of `Nc1ccc2c(c1)nc(C(F)(F)F)n2-c1nc(-c2cccc3[nH]ccc23)nc(N2CCOCC2)n1`, the IC50 was < 1 µM.

For the compound `Cc1ccn(-c2nc(-c3cnc(N)nc3)nc(N3CCOCC3)n2)n1`, the IC50 is < 1 µM.

In the case of `COc1nc(N)ncc1-c1nc(N2CCOCC2)nc(-n2ccnc2C)n1`, the IC50 was < 1 µM.

Take `CCc1nccn1-c1nc(-c2cnc(N)nc2)nc(N2CCOCC2)n1`: the IC50 is < 1 µM.

For `CCCCc1nccn1-c1nc(-c2cccc3[nH]ccc23)nc(N2CCOCC2)n1`, the half-inhibitory concentration (IC50) is < 1 µM.

Regarding `CC(=O)Nc1ccc(-c2nc(N3CCOCC3)nc(-n3c(C)nc4ccccc43)n2)cn1`, the IC50 is < 1 µM.

Take `CCc1nc2ccccc2n1-c1nc(-c2cccc3[nH]ccc23)nc(N2CCOCC2)n1`: the IC50 is < 1 µM.

Take `C#Cc1cn(-c2nc(-c3cccc4[nH]ccc34)nc(N3CCOCC3)n2)c(CC)n1`: the IC50 was < 1 µM.

`CC(C)c1nc2ccccc2n1-c1nc(-c2cccc3[nH]ccc23)nc(N2CCOCC2)n1`: the IC50 is < 1 µM.

For `N#CC=Cc1nccn1-c1nc(-c2cccc3[nH]ccc23)nc(N2CCOCC2)n1`, the IC50 was < 1 µM.

For `Cc1cc(C)n(-c2nc(-c3ccc(N)nc3)nc(N3CCOCC3)n2)n1`, the concentration for half-maximal inhibition (IC50) is < 1 µM.

Turning to `Cc1nc2ccccc2n1-c1nc(-c2cccc(O)c2)nc(N2CCOCC2)n1`, the IC50 was < 1 µM.

For `CCCc1cn(-c2nc(-c3cccc4[nH]ccc34)nc(N3CCOCC3)n2)c(CC)n1`, the IC50 is < 1 µM.

For the compound `COC(=O)CCc1nc2ccccc2n1-c1nc(-c2cccc3[nH]ccc23)nc(N2CCOCC2)n1`, the IC50 was < 1 µM.

With `FC(F)c1nc2ccccc2n1-c1nc(-c2cccc3[nH]ccc23)nc(N2CCOCC2)n1`, the IC50 is < 1 µM.

Take `Nc1ccc(-c2nc(N3CCOCC3)nc(-n3ccc(C(F)(F)F)n3)n2)cn1`: the concentration for half-maximal inhibition (IC50) was < 1 µM.

Turning to `CC(C)c1nc2ccccc2n1-c1nc(-c2cnc(N)nc2)nc(N2CCOCC2)n1`, the IC50 was < 1 µM.

Turning to `Cc1nc(CO)cn1-c1nc(-c2cccc3[nH]ccc23)nc(N2CCOCC2)n1`, the IC50 was < 1 µM.

In the case of `Cc1cc(C)n(-c2nc(-c3cccc4[nH]ccc34)nc(N3CCOCC3)n2)n1`, the IC50 is < 1 µM.

`Cc1nc(N)ncc1-c1nc(N2CCOCC2)nc(-n2ccnc2C(C)C)n1`: the IC50 is < 1 µM.

Turning to `Cc1nc2ccccc2n1-c1nc(-c2cc(O)cc(F)c2)nc(N2CCOCC2)n1`, the IC50 was < 1 µM.

Take `COCCNC(=O)c1cc2ccccc2n1-c1nc(-c2cccc3[nH]ccc23)nc(N2CCOCC2)n1`: the concentration for half-maximal inhibition (IC50) is < 1 µM.

On to `CCc1nc(C)c(CO)n1-c1nc(-c2cccc3[nH]ccc23)nc(N2CCOCC2)n1`, for which the IC50 is < 1 µM.

Turning to `O=C(O)c1cc2ccccc2n1-c1nc(-c2cccc3[nH]ccc23)nc(N2CCOCC2)n1`, the IC50 was < 1 µM.

With `c1ccc(-c2nccn2-c2nc(-c3cccc4[nH]ccc34)nc(N3CCOCC3)n2)cc1`, the IC50 was < 1 µM.

With `Cc1nccn1-c1nc(-c2cccc3[nH]ccc23)nc(N2CCOCC2)n1`, the IC50 is < 1 µM.

For the compound `Cc1nccn1-c1nc(-c2cccc(CO)c2)nc(N2CCOCC2)n1`, the IC50 is < 1 µM.

Turning to `CC(C)c1nccn1-c1nc(-c2cccc3[nH]ccc23)nc(N2CCOCC2)n1`, the 50% inhibitory concentration (IC50) was < 1 µM.

With `CCc1nc2ccccc2n1-c1nc(-c2cnc(N)nc2)nc(N2CCOCC2)n1`, the IC50 was < 1 µM.

For `N#CCCc1nccn1-c1nc(-c2cccc3[nH]ccc23)nc(N2CCOCC2)n1`, the IC50 was < 1 µM.

As for `CCc1nccn1-c1nc(-c2cccc3[nH]ccc23)nc(N2CCOCC2)n1`, the IC50 was < 1 µM.

Take `CCCc1nccn1-c1nc(-c2ccnc3[nH]ccc23)nc(N2CCOCC2)n1`: the IC50 is < 1 µM.

On to `CC#Cc1cn(-c2nc(-c3cccc4[nH]ccc34)nc(N3CCOCC3)n2)c(CC)n1`, for which the half-maximal inhibitory concentration (IC50) is < 1 µM.

Turning to `Nc1ccc(-c2nc(N3CCOCC3)nc(-n3ncc4c3CCCC4)n2)cn1`, the IC50 was < 1 µM.

For `CCCCN(C)Cc1c(C)nc(CC)n1-c1nc(-c2cccc3[nH]ccc23)nc(N2CCOCC2)n1`, the IC50 was < 1 µM.

With `Nc1ncc(-c2nc(N3CCOCC3)nc(-n3c(C(F)F)nc4ccccc43)n2)cn1`, the IC50 is < 1 µM.

Turning to `CCCc1nccn1-c1nc(-c2cccc3[nH]ccc23)nc(N2CCOCC2)n1`, the IC50 was < 1 µM.

With `Nc1ncc(-c2nc(N3CCOCC3)nc(-n3ccc(C(F)(F)F)n3)n2)cn1`, the IC50 is < 1 µM.

Turning to `CC(C)c1nccn1-c1nc(-c2cnc(N)nc2)nc(N2CCOCC2)n1`, the IC50 is < 1 µM.

With `CCCc1nc2ccccc2n1-c1nc(-c2cccc3[nH]ccc23)nc(N2CCOCC2)n1`, the IC50 is < 1 µM.

As for `C=Cc1nccn1-c1nc(-c2cccc3[nH]ccc23)nc(N2CCOCC2)n1`, the IC50 is < 1 µM.

On to `CCCCc1nc2ccccc2n1-c1nc(-c2cnc(N)nc2)nc(N2CCOCC2)n1`, for which the IC50 is < 1 µM.

Take `Cc1ccc2c(c1)ncn2-c1nc(-c2cccc3[nH]ccc23)nc(N2CCOCC2)n1`: the IC50 is < 1 µM.

As for `Cc1ccn(-c2nc(-c3cccc4[nH]ccc34)nc(N3CCOCC3)n2)n1`, the half-maximal inhibitory concentration (IC50) is < 1 µM.

As for `CC(C)Cc1nccn1-c1nc(-c2cccc3[nH]ccc23)nc(N2CCOCC2)n1`, the half-inhibitory concentration (IC50) was < 1 µM.

Regarding `O=C(NC1CC1)c1cc2ccccc2n1-c1nc(-c2cccc3[nH]ccc23)nc(N2CCOCC2)n1`, the IC50 was < 1 µM.

Regarding `Oc1cccc(-c2nc(N3CCOCC3)nc(-n3c(C(F)F)nc4ccccc43)n2)c1`, the IC50 is < 1 µM.

Consider `c1cc(-c2nc(N3CCOCC3)nc(-n3ccnc3)n2)c2cc[nH]c2c1`, for which the IC50 was < 1 µM.

`Cc1nccn1-c1nc(-c2cnc(N)nc2)nc(N2CCOCC2)n1`: the 50% inhibitory concentration (IC50) is < 1 µM.

In the case of `Cc1cn(-c2nc(-c3cccc4[nH]ccc34)nc(N3CCOCC3)n2)cn1`, the IC50 is < 1 µM.

Consider `CCc1cn(-c2nc(-c3cccc4[nH]ccc34)nc(N3CCOCC3)n2)c(CC)n1`, for which the concentration for half-maximal inhibition (IC50) is < 1 µM.

On to `c1cc(-c2nc(N3CCOCC3)nc(-n3cnc(CN4CCCC4)c3)n2)c2cc[nH]c2c1`, for which the concentration for half-maximal inhibition (IC50) is < 1 µM.

On to `CCc1nc(C#Cc2ccccn2)cn1-c1nc(-c2cccc3[nH]ccc23)nc(N2CCOCC2)n1`, for which the 50% inhibitory concentration (IC50) was < 1 µM.

Turning to `Cc1nc2ccccc2n1-c1nc(-c2cccc3[nH]ccc23)nc(N2CCOCC2)n1`, the IC50 was < 1 µM.

Turning to `CCCCc1nc2ccccc2n1-c1nc(-c2cccc3[nH]ccc23)nc(N2CCOCC2)n1`, the IC50 is < 1 µM.

`Cc1nc2ccccc2n1-c1nc(-c2cnc(N)nc2)nc(N2CCOCC2)n1`: the IC50 was < 1 µM.

As for `CCc1nccn1-c1nc(-c2ccnc3[nH]ccc23)nc(N2CCOCC2)n1`, the IC50 was < 1 µM.

As to `Cc1nc(CNC2CC2)cn1-c1nc(-c2cccc3[nH]ccc23)nc(N2CCOCC2)n1`, the IC50 was < 1 µM.

As to `Cc1cc(C(F)(F)F)n(-c2nc(-c3cnc(N)nc3)nc(N3CCOCC3)n2)n1`, the IC50 is < 1 µM.

With `c1ccc2c(c1)nc(C1CC1)n2-c1nc(-c2cccc3[nH]ccc23)nc(N2CCOCC2)n1`, the IC50 is < 1 µM.

As to `Cc1nccn1-c1nc(-c2cccc3[nH]ncc23)nc(N2CCOCC2)n1`, the IC50 was < 1 µM.

Consider `Nc1ncc(-c2nc(N3CCOCC3)nc(-n3ncc4c3CCCC4)n2)cn1`, for which the IC50 is < 1 µM.

In general, IC50 refers to the concentration at which inhibition is half-maximal. A high value points to a need for much substance.
